In patent US20080096811A1, “[…] VPAC2 RECEPTOR PEPTIDE AGONISTS” (Eli Lilly and Company, published 2008):
*1 amine or outer side, *2 acyl side, *3 side chain or, on linkers, in order; H or OH if unused. Where a SMILES comes first, the peptide text is derived from it. Where no end group is shown, it is not given here. Side-chain parts run from the residue outwards. The star is where a group is joined. γGlu = O=C(O)[C@H](CCC(=O)[*:2])N[*:1]; Palmitoyl = CCCCCCCCCCCCCCCC(=O)*; Hexanoyl = CCCCCC(=O)*; Propionyl = CCC(=O)*; Bz = O=C(c1ccccc1)*

Experiments:
human VPAC2 [1] = target: T1, human VPAC2 (Homo sapiens, UniProt P41587); test: Filter binding assay, human VPAC2 membranes, 125I-labeled VIP tracer
T1 construct: expressed in transfected cells
T1 sequence (P41587 24-438): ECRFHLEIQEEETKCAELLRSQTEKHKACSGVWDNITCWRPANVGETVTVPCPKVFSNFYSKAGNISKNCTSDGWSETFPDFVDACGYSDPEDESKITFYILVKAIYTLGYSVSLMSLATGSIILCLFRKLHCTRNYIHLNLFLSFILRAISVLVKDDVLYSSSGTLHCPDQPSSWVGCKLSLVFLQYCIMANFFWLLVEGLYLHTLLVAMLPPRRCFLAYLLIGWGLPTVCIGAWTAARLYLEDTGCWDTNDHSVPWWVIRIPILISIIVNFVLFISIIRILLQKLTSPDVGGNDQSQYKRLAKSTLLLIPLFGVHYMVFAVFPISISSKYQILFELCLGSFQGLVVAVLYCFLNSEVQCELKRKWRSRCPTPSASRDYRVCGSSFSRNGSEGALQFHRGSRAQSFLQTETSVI
Experimental: (§1) For this assay, the solutions and equipment include:
(§2) Presoak solution: 0.5% Polyethyleneamine in Aqua dest.
(§3) Buffer for flushing filter plates: 25 mM […] pH 7.4
(§4) Blocking buffer: 25 mM HEPES pH 7.4; 0.2% protease free BSA
(§5) Assay buffer: 25 mM HEPES pH 7.4; 0.5% protease free BSA
(§6) Dilution and assay plate: PS-Microplate, U form
(§7) Filtration Plate Multiscreen FB Opaque Plate; […] Type B Glasfiber filter
(§8) In order to prepare the filter plates, aspirate the presoak solution by vacuum filtration. Flush the plates twice with 200 μL flush buffer. Add 200 μL blocking buffer to the filter plate. The filter plate is then incubated […] for 1 hour at room temperature.
(§9) Fill the assay plate with 25 μL assay buffer, 25 μL membranes (2.5 μg) suspended in assay buffer, 25 μL compound (agonist) in assay buffer, and 25 μL tracer (about 40000 cpm) in assay buffer. Incubate the filled plate for 1 hour with shaking.
(§10) Conduct the transfer from assay plate to filter plate. Aspirate the blocking buffer by vacuum filtration and wash two times with flush buffer. Transfer 90 μL from the assay plate to the filter plate. Aspirate the 90 μL transferred from assay plate and wash three times with 200 μL flush buffer. Remove the plastic support. Dry for 1 hour at 60° C. Add 30 μL Microscint. Perform the count.

human VPAC2 [2] = target: T1, human VPAC2; test: DiscoveRx cAMP in vitro potency, human VPAC2; format: cell-based
Experimental: Also, the cells are washed twice. The cells are incubated in assay buffer plus IBMX for 15 minutes at room temperature. […] The stimuli are present for 30 minutes. Then, the assay buffer is gently removed. […] At day 3, the assay described above for the VPAC2 receptor cell line is performed.

human VPAC2 [3] = target: T1, human VPAC2; test: Alpha screen cAMP in vitro potency, human VPAC2; format: cell-based
Experimental: Alpha screen: Cells are washed in the culture flask once with PBS. Then, the cells are rinsed with enzyme free dissociation buffer. The dissociated cells are removed. The cells are then spun down and washed in stimulation buffer. For each data point, 50,000 cells suspended in stimulation buffer are used. To this buffer, Alpha screen acceptor beads are added along with the stimuli. This mixture is incubated for 60 minutes. Lysis buffer and Alpha screen donor beads are added and are incubated for 60 to 120 minutes. The Alpha screen signal (indicative of intracellular cAMP levels) is read in a suitable instrument (e.g. AlphaQuest from Perlin-Elmer). Steps including Alpha screen donor and acceptor beads are performed in reduced light.

human VPAC1 = target: T2, human VPAC1 (Homo sapiens, UniProt P32241); test: Filter binding assay, human VPAC1 membranes, 125I-labeled VIP tracer; parameters: expressed in transfected cells
T2 sequence (P32241 31-457): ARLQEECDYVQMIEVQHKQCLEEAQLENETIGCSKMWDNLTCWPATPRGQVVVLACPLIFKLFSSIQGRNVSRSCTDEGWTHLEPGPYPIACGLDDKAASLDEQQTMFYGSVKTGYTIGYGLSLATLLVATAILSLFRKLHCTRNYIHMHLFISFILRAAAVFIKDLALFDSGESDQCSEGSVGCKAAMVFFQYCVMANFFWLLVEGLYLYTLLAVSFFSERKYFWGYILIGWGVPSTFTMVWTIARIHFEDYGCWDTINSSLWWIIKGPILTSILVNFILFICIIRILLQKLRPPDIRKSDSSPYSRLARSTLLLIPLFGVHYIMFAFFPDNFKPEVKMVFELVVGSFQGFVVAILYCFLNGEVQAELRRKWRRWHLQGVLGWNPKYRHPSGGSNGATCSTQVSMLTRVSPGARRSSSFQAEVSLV
Experimental: as §1, §2, §3, §4, §5, §6, §7, §8, §9, §10

human PAC1 = human PAC1 (Homo sapiens, UniProt P41586); test: biochemical
Experimental: as §1, §2, §3, §4, §5, §6, §7, §8, §9, §10

Sequence of human PAC1 (P41586 21-468): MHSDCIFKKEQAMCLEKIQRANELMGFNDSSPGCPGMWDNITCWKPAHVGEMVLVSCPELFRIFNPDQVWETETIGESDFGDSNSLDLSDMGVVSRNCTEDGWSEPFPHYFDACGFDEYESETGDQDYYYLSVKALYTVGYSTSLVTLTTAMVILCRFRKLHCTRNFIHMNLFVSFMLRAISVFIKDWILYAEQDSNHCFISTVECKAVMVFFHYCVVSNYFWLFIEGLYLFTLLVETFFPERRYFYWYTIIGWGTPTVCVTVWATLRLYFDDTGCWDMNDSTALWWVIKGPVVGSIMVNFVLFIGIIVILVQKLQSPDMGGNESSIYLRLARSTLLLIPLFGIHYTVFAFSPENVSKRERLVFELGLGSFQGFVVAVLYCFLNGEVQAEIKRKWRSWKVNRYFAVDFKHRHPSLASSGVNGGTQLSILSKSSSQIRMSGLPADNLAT

Compound	IC50 (human VPAC2 [1]) [nM]	EC50 (human VPAC2 [2]) [nM]	EC50 (human VPAC2 [3]) [nM]	IC50 (human VPAC1) [nM]	IC50 (human PAC1) [nM]
CCCCCCCCCCCCCCCC(=O)N[C@@H](CCC(=O)NCCCC[C@H](NC(=O)[C@@H]1CCCN1C(=O)[C@@H]1CCCN1C(=O)[C@@H]1CCCN1C(=O)[C@H](CO)NC(=O)[C@@H](NC(=O)[C@H](CCCNC(=N)N)NC(=O)[C@H](CO)NC(=O)[C@H](CC(N)=O)NC(=O)[C@H](CCCCN)NC(=O)[C@@H](NC(=O)[C@H](CO)NC(=O)[C@H](CCC(N)=O)NC(=O)[C@H](CC(C)C)NC(=O)[C@H](Cc1ccc(O)cc1)NC(=O)[C@H](CCCCN)NC(=O)[C@H](CCCCN)NC(=O)[C@H](C)NC(=O)[C@H](C)NC(=O)[C@@H](NC(=O)[C@H](CCC(N)=O)NC(=O)[C@H](CCCCN)NC(=O)[C@H](CCCNC(=N)N)NC(=O)[C@H](CC(C)C)NC(=O)[C@H](CCCNC(=N)N)NC(=O)[C@@H](NC(=O)[C@H](Cc1ccc(O)cc1)NC(=O)[C@H](CC(N)=O)NC(=O)[C@H](CC(=O)O)NC(=O)[C@@H](NC(=O)[C@H](Cc1ccccc1)NC(=O)[C@@H](NC(=O)[C@H](C)NC(=O)[C@H](CC(=O)O)NC(=O)[C@H](CO)NC(=O)[C@H](Cc1c[nH]cn1)NC(=O)CC)C(C)C)[C@@H](C)O)[C@@H](C)O)C(C)C)[C@@H](C)CC)[C@@H](C)O)C(N)=O)C(=O)O [Agonist P95] (Propionyl-HSDAVFTDNYTRLRKQVAAKKYLQSIKNSRTSPPPK([γGlu-Palmitoyl])-NH2)	21.6	0.45	0.24	203	–
CCCCCC(=O)N[C@@H](Cc1c[nH]cn1)C(=O)N[C@@H](CO)C(=O)N[C@@H](CC(=O)O)C(=O)N[C@@H](C)C(=O)N[C@H](C(=O)N[C@@H](Cc1ccccc1)C(=O)N[C@H](C(=O)N[C@@H](CC(=O)O)C(=O)N[C@@H](CC(N)=O)C(=O)N[C@@H](Cc1ccc(O)cc1)C(=O)N[C@H](C(=O)N[C@@H](CCCNC(=N)N)C(=O)N[C@@H](CC(C)C)C(=O)N[C@@H](CC(C)C)C(=O)N[C@@H](CC(C)C)C(=O)N[C@@H](CCCCN)C(=O)N[C@H](C(=O)N[C@@H](C)C(=O)N[C@@H](C)C(=O)N[C@@H](CCCCN)C(=O)N[C@@H](CCCCN)C(=O)N[C@@H](Cc1ccc(O)cc1)C(=O)N[C@@H](CC(C)C)C(=O)N[C@@H](CCC(N)=O)C(=O)N[C@@H](CO)C(=O)N[C@H](C(=O)N[C@@H](CCCCN)C(=O)N[C@@H](CC(N)=O)C(=O)N[C@@H](CO)C(=O)N[C@@H](CCCNC(=N)N)C(=O)N[C@H](C(=O)N[C@@H](CO)C(=O)N1CCC[C@H]1C(=O)N1CCC[C@H]1C(=O)N1CCC[C@H]1C(N)=O)[C@@H](C)O)[C@@H](C)CC)C(C)C)[C@@H](C)O)[C@@H](C)O)C(C)C [Agonist P156] (Hexanoyl-HSDAVFTDNYTRLLLKVAAKKYLQSIKNSRTSPPP-NH2)	0.42	–	0.29	93.3	8290
HSDAVFTDNYTRLRKAAAAKKYLQSIKNSRTSPPP-NH2 [Agonist P97]	0.82	–	0.64	97.5	87.3
CCCCCCCCCCCCCCCC(=O)N[C@@H](CCC(=O)NCCCC[C@H](NC(=O)[C@@H]1CCCN1C(=O)[C@@H]1CCCN1C(=O)[C@@H]1CCCN1C(=O)[C@H](CO)NC(=O)[C@@H](NC(=O)[C@H](CCCNC(=N)N)NC(=O)[C@H](CO)NC(=O)[C@H](CC(N)=O)NC(=O)[C@H](CCCCN)NC(=O)[C@@H](NC(=O)[C@H](CO)NC(=O)[C@H](CCC(N)=O)NC(=O)[C@H](CC(C)C)NC(=O)[C@H](Cc1ccc(O)cc1)NC(=O)[C@H](CCCCN)NC(=O)[C@H](CCCCN)NC(=O)[C@H](C)NC(=O)[C@H](C)NC(=O)[C@@H](NC(=O)[C@H](CCC(N)=O)NC(=O)[C@H](CCCCN)NC(=O)[C@H](CCCNC(=N)N)NC(=O)[C@H](CC(C)C)NC(=O)[C@H](CCCNC(=N)N)NC(=O)[C@@H](NC(=O)[C@H](Cc1ccc(O)cc1)NC(=O)[C@H](CC(N)=O)NC(=O)[C@H](CC(=O)O)NC(=O)[C@@H](NC(=O)[C@H](Cc1ccccc1)NC(=O)[C@@H](NC(=O)[C@H](C)NC(=O)[C@H](CC(=O)O)NC(=O)[C@H](CO)NC(=O)[C@@H](N)Cc1c[nH]cn1)C(C)C)[C@@H](C)O)[C@@H](C)O)C(C)C)[C@@H](C)CC)[C@@H](C)O)C(N)=O)C(=O)O [Agonist P80] (H-HSDAVFTDNYTRLRKQVAAKKYLQSIKNSRTSPPPK([γGlu-Palmitoyl])-NH2)	31.6	2.8	1.82	284	–
CC[C@H](C)[C@H](NC(=O)[C@H](CO)NC(=O)[C@H](CCC(N)=O)NC(=O)[C@H](CC(C)C)NC(=O)[C@H](Cc1ccc(O)cc1)NC(=O)[C@H](CCCCN)NC(=O)[C@H](CCCCN)NC(=O)[C@H](C)NC(=O)[C@H](C)NC(=O)[C@@H](NC(=O)[C@H](CCC(N)=O)NC(=O)[C@H](CCCCN)NC(=O)[C@H](CCCNC(=N)N)NC(=O)[C@H](CC(C)C)NC(=O)[C@H](CCCNC(=N)N)NC(=O)[C@@H](NC(=O)[C@H](Cc1ccc(O)cc1)NC(=O)[C@H](CC(N)=O)NC(=O)[C@H](CC(=O)O)NC(=O)[C@@H](NC(=O)[C@H](Cc1ccccc1)NC(=O)[C@@H](NC(=O)[C@H](C)NC(=O)[C@H](CC(=O)O)NC(=O)[C@H](CO)NC(=O)[C@H](Cc1c[nH]cn1)NC(=O)c1ccccc1)C(C)C)[C@@H](C)O)[C@@H](C)O)C(C)C)C(=O)N[C@@H](CCCCN)C(=O)N[C@@H](CC(N)=O)C(=O)N[C@@H](CO)C(=O)N[C@@H](CCCNC(=N)N)C(=O)N[C@H](C(=O)N[C@@H](CO)C(=O)N1CCC[C@H]1C(=O)N1CCC[C@H]1C(=O)N1CCC[C@H]1C(N)=O)[C@@H](C)O [Agonist P91] (Bz-HSDAVFTDNYTRLRKQVAAKKYLQSIKNSRTSPPP-NH2)	0.21	0.76	1.9	58.2	–
CCCCCC(=O)N[C@@H](Cc1c[nH]cn1)C(=O)N[C@@H](CO)C(=O)N[C@@H](CC(=O)O)C(=O)N[C@@H](C)C(=O)N[C@H](C(=O)N[C@@H](Cc1ccccc1)C(=O)N[C@H](C(=O)N[C@@H](CC(=O)O)C(=O)N[C@@H](CCC(N)=O)C(=O)N[C@@H](Cc1ccc(O)cc1)C(=O)N[C@H](C(=O)N[C@@H](CCCNC(=N)N)C(=O)N[C@@H](CC(C)C)C(=O)N[C@@H](CCCNC(=N)N)C(=O)N[C@@H](CCCCN)C(=O)N[C@@H](CCC(N)=O)C(=O)N[C@H](C(=O)N[C@@H](C)C(=O)N[C@@H](C)C(=O)N[C@@H](CCCCN)C(=O)N[C@@H](CCCCN)C(=O)N[C@@H](Cc1ccc(O)cc1)C(=O)N[C@@H](CC(C)C)C(=O)N[C@@H](CCC(N)=O)C(=O)N[C@@H](CO)C(=O)N[C@H](C(=O)N[C@@H](CCCCN)C(=O)N[C@@H](CCC(N)=O)C(=O)N[C@@H](CO)C(=O)N[C@@H](CCCNC(=N)N)C(=O)N[C@H](C(=O)N[C@@H](CO)C(=O)N1CCC[C@H]1C(=O)N1CCC[C@H]1C(=O)N1CCC[C@H]1C(N)=O)[C@@H](C)O)[C@@H](C)CC)C(C)C)[C@@H](C)O)[C@@H](C)O)C(C)C [Agonist P157] (Hexanoyl-HSDAVFTDQYTRLRKQVAAKKYLQSIKQSRTSPPP-NH2)	0.14	–	0.06	30.6	222
